Data reported in ChEMBL document CHEMBL1144151, “Two novel anti-emetic principles of Alpinia katsumadai” (1999).

Legend:
Format in all cases: functional
Conditions in all cases: route intraperitoneal
Gallus gallus [1] = experiment: Anti-emetic activity against copper sulfate-induced emesis in 4 days old chicks assessed as inhibition of number of retching reflexes at 50 mg/kg, ip measured 10 mins after copper sulfate challenge
Gallus gallus [2] = experiment: Anti-emetic activity against copper sulfate-induced emesis in 4 days old chicks assessed as inhibition of number of retching reflexes at 10 mg/kg, ip measured 10 mins after copper sulfate challenge
Gallus gallus [3] = experiment: Anti-emetic activity against copper sulfate-induced emesis in 4 days old chicks assessed as inhibition of number of retching reflexes at 20 mg/kg, ip measured 10 mins after copper sulfate challenge

SMILES | inhibition in vivo at 50 mg/kg (Gallus gallus [1]) [%] | inhibition in vivo at 10 mg/kg (Gallus gallus [2]) [%] | inhibition in vivo at 20 mg/kg (Gallus gallus [3]) [%]
O=C(CCc1ccccc1)C[C@@H]1C[C@@H](c2ccccc2)c2c(cc(/C=C/c3ccccc3)oc2=O)O1 [KATSUMADAIN A] | 50.2 | 8.8 | 14.5
O=C(CCc1ccccc1)CC(/C=C/c1ccccc1)c1c(O)cc(/C=C/c2ccccc2)oc1=O (centres undefined) [KATSUMADAIN B] | 41.4 | – | –
